{
  "source": "patent US20100130736A1",
  "about": "“METHODS OF CREATING AN INDEX” (priority 2008, published 2010)",
  "format_in_all_cases": "cell-based, human",
  "key": {"quiescent A431 cells [1]": {"system": "quiescent A431 cells", "test": "Epic DMR agonist mode (primary profile) in quiescent A431 cells", "description": "(§1) Epic® wavelength interrogation system (Corning Inc., Corning, N.Y.) was used for whole cell sensing. This system consists of a temperature-control unit, an optical detection unit, and an on-board liquid handling unit with robotics. The detection unit is centered on integrated fiber optics, and enables kinetic measures of cellular responses with a time interval of ±15 sec.\n(§2) For biosensor cellular assays, molecule solutions were made by diluting the stored concentrated solutions with the HBSS (1× Hanks balanced salt solution, plus 20 mM Hepes, pH 7.1), and transferred into a 384 well polypropylene molecule storage plate to prepare a molecule source plate. Both molecule and marker source plates were made separately when a two-step assay was performed. In parallel, the cells were washed twice with the HBSS and maintained in 30 μl of the HBSS to prepare a cell assay plate. Both the cell assay plate and the molecule and marker source plate(s) were then incubated in the hotel of the reader system. After ˜1 hr of incubation the baseline wavelengths of all biosensors in the cell assay microplate were recorded and normalized to zero. Afterwards, a 2 to 10 minute continuous recording was carried out to establish a baseline, and to ensure that the cells reached a steady state. Cellular responses were then triggered by pipetting 10 μl of the marker solutions into the cell assay plate using the on-board liquid handler.\nA DMR index was generated for four ligand molecules. Quiescent A431 and proliferating A549 cells were separately exposed to the ligand molecules for about 1 hr to generate their primary profiles, followed by stimulation with each marker at a fixed concentration (as mentioned in FIGS. 7 and 8) for another 1 hr or so to generate secondary profiles of the molecule against the panels of markers in both types of cells. Next, one or more specific DMR parameters were chosen as a readout for plotting the DMR index of the molecule. For the pinacidil DMR response in A549, the amplitude of the N-DMR (i.e., the amplitude 30 min after stimulation) was chosen. […]"}, "A549 cells": {"system": "A549 cells", "test": "Epic label-free DMR two-step assay, antagonist mode: modulation of marker-induced DMR signals in A549 cells", "conditions": "10 μM, score scaled from percent modulation (10% = 1)", "procedure": "(§3) Cells were typically grown using ˜1 to 2×10^4 cells per well at passage 3 to 15 suspended in 50 μl of the corresponding culture medium in the biosensor microplate, and were cultured at 37° C. under air/5% CO2 for ˜1 day. Except for A431, which was subject to ˜20 hr starvation through continuous culture in the serum-free DMEM, the other cell types were directly assayed without starvation. The confluency for all cells at the time of assays was ˜95% to 100%.\nas §1, §2\nTo study the influence of molecules on a marker-induced response, a second stimulation with the marker at a fixed dose (typically at EC80 or EC100) was applied. The resonant wavelengths of all biosensors in the microplate were normalized again to establish a second baseline, right before the second stimulation. The two stimulations were usually separated by ˜1 hr. All studies were carried out at a controlled temperature (28° C.). At least two independent sets of experiments, each with at least three replicates, were performed.\nA second panel of markers was contacted with A549 cells at concentrations close to each of the marker's EC80 or EC100, and DMR measurements were obtained with and EPIC® system. This panel included poly(I:C), SLIGKV-amide, pinacidil, PMA, histamine, and forskolin. Each of these markers also leads to a wide array of cell signaling. Using Epic® cellular assays in conjunction with chemical biology and cell biology approach similar to the EGFR DMR mentioned above, we have determined the pathway(s) and network interaction(s) that is accounted for each marker-induced DMR signal in A549 cells. The main observations are summarized below. Poly(I:C) is an agonist for endogenous Toll-like receptor(s) in A549, whose activation leads to IKK pathway and AKT pathway. SLIGKV-amide is an agonist for endogenous protease activated receptor subtype 2 (PAR2) in A549, whose activation leads to Gq-, Gi- and G12/13-mediated signaling. Pinacidil is an opener for endogenous ATP-sensitive potassium (KATP) ion channel in A549, whose activation leads to Rho- and JAK-mediated signaling. PMA is an activator for protein kinase C (PKC), whose activation leads to PKC pathway and degranulation. Histamine is a natural agonist for endogenous histamine receptors (dominantly H1R, and possibly H3R), whose activation leads to dual signaling, possibly through Gq and Gi mediated signaling in A549. Forskolin is an activator for adenylyl cyclases, whose activation leads to cAMP-PKA pathway in A549. […] Each DMR signal represents an averaged response of 4 replicates. […]"}, "quiescent A431 cells [2]": {"system": "quiescent A431 cells", "test": "Epic label-free DMR two-step assay, antagonist mode: modulation of marker-induced DMR signals in quiescent A431 cells", "procedure": "as §3, §1, §2\nTo study the influence of molecules on a marker-induced response, a second stimulation with the marker at a fixed dose (typically at EC80 or EC100) was applied. The resonant wavelengths of all biosensors in the microplate were normalized again to establish a second baseline, right before the second stimulation. The two stimulations were usually separated by ˜1 hr. All studies were carried out at a controlled temperature (28° C.). At least two independent sets of experiments, each with at least three replicates, were performed. […]\nA first panel of markers was contacted with quiescent A431 cells at concentrations close to each of the marker's EC80 or EC100, and DMR measurements were obtained with and EPIC® system. This panel of markers was selected from a library of markers identified in A431 cells using Epic® cellular assays. This panel included epidermal growth factor (EGF), epinephrine, nicotinic acid, and histamine. Each of these markers leads to a wide array of cell signaling. […] Each DMR signal represents an averaged response of 4 replicates."}, "[3]": {"conditions": "A431, ~1 hr pretreatment with the molecule"}, "[4]": {"conditions": "quiescent A431, 10 μM, score scaled from percent modulation (10% = 1)"}},
  "data": [
    {"compound": "EGF: natural agonist for endogenous EGF receptor in A431", "values": [
      {"measurement": "EC80 to trigger the DMR signal", "setting": "quiescent A431 cells [1]; fully quiescent A431 cells", "value": "~32", "unit": "nM"},
      {"measurement": "DMR signal triggered", "setting": "quiescent A431 cells [1]; fully quiescent A431 cells, EGF ~32 nM, three phases P-DMR, N-DMR, RP-DMR, FIG. 4", "value": "distinct and robust DMR signal"},
      {"measurement": "DMR response as a function of dose", "setting": "quiescent A431 cells [1]; quiescent A431 cells, data not shown", "value": "dose-dependent response"}
    ]},
    {"compound": "CNCCNS(=O)(=O)c1cccc2cnccc12", "note": "[H-8]", "values": [
      {"measurement": "modulation index score, PMA", "setting": "A549 cells", "value": 2.2},
      {"measurement": "modulation index score, SLIGKV-amide", "setting": "A549 cells", "value": 3.2},
      {"measurement": "modulation index score, forskolin", "setting": "A549 cells", "value": 2},
      {"measurement": "modulation index score, histamine (early P-DMR)", "setting": "A549 cells", "value": 3.8},
      {"measurement": "modulation index score, histamine (late P-DMR)", "setting": "A549 cells", "value": 6.5},
      {"measurement": "modulation index score, pinacidil", "setting": "A549 cells", "value": "−7.2"},
      {"measurement": "modulation index score, poly(I:C)", "setting": "A549 cells", "value": 1.8},
      {"measurement": "effect on the epinephrine response (in words)", "setting": "quiescent A431 cells [2]; [3]", "value": "less effective at attenuating"},
      {"measurement": "effect on the histamine response (in words)", "setting": "quiescent A431 cells [2]; [3]", "value": "less effective at attenuating"},
      {"measurement": "modulation index score, EGF (N-DMR)", "setting": "quiescent A431 cells [2]; [4]", "value": "−2"},
      {"measurement": "modulation index score, EGF (P-DMR)", "setting": "quiescent A431 cells [2]; [4]", "value": 0.3},
      {"measurement": "modulation index score, epinephrine", "setting": "quiescent A431 cells [2]; [4]", "value": "−1.6"},
      {"measurement": "modulation index score, histamine", "setting": "quiescent A431 cells [2]; [4]", "value": 1.6},
      {"measurement": "modulation index score, nicotinic acid", "setting": "quiescent A431 cells [2]; [4]", "value": 1}
    ]}
  ]
}
